Measured values: patent US20160113904A1, “SKIN CARE PRODUCTS COMPRISING SUBSTITUTED HYDROXYPROLINE WITH UNSATURATED FATTY ACIDS DERIVATIVES” (MEDWELL LABORATORIES LTD., priority 2013, published 2016)
Entries after “also recorded” stand apart in the source; their conditions may differ.

How the values were obtained:
Assay type in all cases: in vivo, human
[1] = system: volunteers with Atopic dermatitis; assay: Atopic dermatitis trial: subjective pruritus intensity; conditions: for Change in Pruritus level / Pruritus level: treated area; for Pruritus level: scale 0-5
From the text: (§1) Ten volunteers aged 2-30 years participated in the trial. Four females and six males.
(§2) Volunteers were instructed to apply the product only on one side of the body, on the worst affected area, while the other side was defined as the control area and was not treated. The tested material, a body lotion product, was applied 1-3 times a day for a period of 4 weeks.
The volunteers were asked to assess the pruritus intensity on a 0-5 scale at T0, T1 and T2. • 0=None • 1=Slight • 2=Moderate • 3=Severe • 4=Extreme • 5=Very Extreme
(§3) A statistical comparison between T0 and the other two time-points (T1 and T2) and between the treated and the Control areas were made according to the Wilcoxon signed-ranks test, while p<0.05 indicated a significant difference

[2] = system: volunteers with Atopic dermatitis; assay: Atopic dermatitis trial: hydration level by Corneometer; conditions: for Change in hydration level / Hydration level: treated area; for Hydration level: Corneometer
Method: as §1, §2
Hydration level was evaluated by Comeometer CM 825, Courage & Khazaka, CK. The probe of the Corneometer was placed on the skin at a constant pressure and measurements of skin hydration were taken. Skin hydration was recorded at baseline, after 1 week and after 2 weeks of treatment. Room temperature and humidity were kept constant.
as §3

[3] = system: volunteers with Atopic dermatitis; assay: Atopic dermatitis trial: transepidermal water loss (TEWL) by Tewameter; conditions: treated area
Method: as §1, §2
Transepidermal water loss (TEWL) was measured by Tewameter 300 TM, Courage & Khazaka, CK. TEWL was recorded at baseline and after one week and after two weeks of treatment. Room temperature and humidity were kept constant.
as §3

[4] = system: volunteers with Atopic dermatitis; assay: Atopic dermatitis trial: erythema level by Mexameter; conditions: for Change in erythema level / Erythema level: treated area; for Erythema level: Mexameter
Method: as §1, §2
Erythema level was evaluated by Mexameter, Courage & Khazaka, CK. The probe of the Mexameter was placed on the skin at a constant pressure and measurements of skin hydration were taken. Skin erythema level was recorded at baseline, after 1 week and after 2 weeks of treatment.
as §3

[5] = system: volunteers with psoriasis; assay: Psoriasis trial: side effects; conditions: topical use for 4 weeks
From the text: The participants were asked to keep a record of daily applications and to note any side effects resulting from product application.
Volunteers were asked to keep a record and report any side effects, such as dryness, burning sensation, peeling of the skin, redness or any other visible changes, and report immediately to study director.

[6] = system: healthy female volunteers, facial skin; assay: Anti wrinkle test: hydration level by Corneometer; conditions: face, treated area
Method: (§4) Ten healthy female volunteers were included and completed the study.
(§5) Moisture level of the skin (corneometry) and TEWL (Trans Epidermal Water Loss) were measured at each time point.
(§6) A cosmetic anti wrinkle product MW-001 was applied on half of the face for four weeks by each volunteer while the other half served as a control, without any product application during the whole test period.
Hydration level was evaluated by Corneometer, Courage & Khazaka, CK. The probe of the corneometer was placed on the skin at a constant pressure and measurements of skin hydration were taken. Skin hydration was recorded at T0, T1 and T2. Each measurement was repeated three times, and the average of the repeated measurements was calculated and assembled in the test results. The room temperature and humidity were kept constant.
The corneometry results are provided in arbitrary units.

[7] = system: healthy female volunteers, facial skin; assay: Anti wrinkle test: TEWL by Tewameter; conditions: face, treated area
Method: as §4, §5, §6
TEWL (the ability not to harm the skin barrier) was measured with Tewameter TM 300, Courage & Khazaka, CK. TEWL was recorded at T0, T1 and T2. The results of TEWL in each measurement were recorded after stabilization of the curve of the results in real time. Room temperature and humidity were constant.

[8] = system: healthy female volunteers, facial wrinkles; assay: Anti wrinkle test: volunteers' subjective assessment of wrinkles; conditions: treated side, scale 0-10
Method: as §4
A subjective assessment of facial wrinkles condition was performed by the volunteers at each time point.
as §6
The volunteers filled out a questionnaire after 2 and 4 weeks of application.
The volunteers were asked to answer a questionnaire after four weeks of application, regarding the assessment of each of the tested products, and to evaluate the improvement of the skin beneath and at the side of the eye.

CCC=CCC=CCC=CCC=CCC=CCC=CCCC(=O)N1CC(O)CC1C(=O)O (stereo in doubt) [MW-001]
Pruritus level, statistical analysis of change ([1]; after 1 and 2 weeks of treatment, only at the treated area): decreased significantly | Change in Pruritus level ([1]; Baseline): 100% | Pruritus level ([1]; T0 baseline): 3.4 | Pruritus level ([1]; T1 after one week): 1.4 | Pruritus level ([1]; T2 after two weeks): 0.9 | Change in Pruritus level ([1]; Week 1, relative to baseline): 41% | Change in Pruritus level ([1]; Week 2, relative to baseline): 26% | Hydration level, statistical analysis of change ([2]; any of the sides): no significant change | Change in hydration level ([2]; Baseline): 100% | Hydration level ([2]; T0 baseline): 21.1 | Hydration level ([2]; T1 after one week): 30.7 | Hydration level ([2]; T2 after two weeks): 27.8 | Change in hydration level ([2]; Week 1, relative to baseline): 146% | Change in hydration level ([2]; Week 2, relative to baseline): 132% | Change in TEWL level ([3]; Baseline): 100% | TEWL level ([3]; T0 baseline): 13.6 g/m2/h | TEWL level ([3]; T1 after one week): 12.5 g/m2/h | TEWL level ([3]; T2 after two weeks): 10.5 g/m2/h | Change in TEWL level ([3]; Week 1, relative to baseline): 92% | Change in TEWL level ([3]; Week 2, relative to baseline): 78% | Change in erythema level ([4]; Baseline): 100% | Erythema level ([4]; T0 baseline): 620.5 | Erythema level ([4]; T1 after one week): 562.7 | Erythema level ([4]; T2 after two weeks): 600.2 | Change in erythema level ([4]; Week 1, relative to baseline): 91% | Change in erythema level ([4]; Week 2, relative to baseline): 97% | Erythema level, statistical analysis of change ([4]; treated side, after 1 week of treatment): decreased significantly | Erythema level, statistical analysis versus baseline ([4]; treated side, after the increase following week 1): not significantly different | Side effects / safety [5]: No side effects were observed; also recorded: safe for use | Average hydration level ([6]; T0 baseline): 60.9 arbitrary units | Average hydration level ([6]; T1 after 2 weeks of use): 53.4 arbitrary units | Average hydration level ([6]; T2 after 4 weeks of use): 53.5 arbitrary units | Average TEWL level ([7]; T0 baseline): 7.8 g/hm^2 | Average TEWL level ([7]; T1 after 2 weeks of use): 9.4 g/hm^2 | Average TEWL level ([7]; T2 after 4 weeks of use): 7.6 g/hm^2 | Volunteers' grading of improvement of wrinkle appearance ([8]; after 2 weeks of treatment): 3.5 | Volunteers' grading of wrinkle improvement around the eyes ([8]; after 2 weeks of treatment): 3.5 | Volunteers' grading of wrinkle improvement around the eyes ([8]; after 4 weeks of treatment): 4.3 | Volunteers' grading of improvement in wrinkles appearance ([8]; printed 'After 2 weeks of treatment' (second statement)): 4.6
